Laboratory results reported in paper PMC9186531, “Biochemical and structural characterization of the flavodoxin-like domain of the Schizosaccharomyces japonicus putative tRNA ^Phe 4-demethylwyosine synthase Tyw1 in complex with FMN” (microPublication Biology, 2022).

Molecular target: T1, Tyw1 30-251 (Schizosaccharomyces japonicus, UniProt B6K6D6)
T1 construct: flavodoxin-like domain with N-terminal extension, residues 30-251; N-terminal TRX-6His or MBP-6His tag with TEV site, tag cleaved; E. coli KRX; monomer; calculated mass 24940 Da, MS 25010 Da
T1 sequence (B6K6D6 30-251): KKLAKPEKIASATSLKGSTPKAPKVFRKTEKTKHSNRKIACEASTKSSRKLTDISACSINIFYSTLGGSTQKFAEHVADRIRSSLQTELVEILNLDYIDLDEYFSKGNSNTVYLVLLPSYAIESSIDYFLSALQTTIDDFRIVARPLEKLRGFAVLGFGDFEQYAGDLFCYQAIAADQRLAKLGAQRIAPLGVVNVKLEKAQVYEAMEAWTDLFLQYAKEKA
Assay: X-ray crystal structure (molecular replacement, […] A)
Format: binding
Conditions: co-purified oxidized FMN; crystals pH 8.5, 288 K; unit occupancy

Cc1cc2nc3c(=O)[nH]c(=O)nc-3n(C[C@H](O)[C@H](O)[C@H](O)COP(=O)(O)O)c2cc1C [FMN]
X-ray crystal structure (molecular replacement, 1.5 A): FMN density was strong and was modeled with unit occupancy in both structures.
